This data set is described as follows: pH of 2.5 wt % aqueous solutions of the salts in purified water. It counts as physicochemical. Conditions: 2.5 wt % aqueous solution in purified water.
On to `[Ca+2].[Cl-].[Cl-]` [CaCl2(anhydrous), anhydrous calcium chloride], for which the “pH of 2.5% salt solution” value came to 8.40.
As for `NCC(=O)O` [Glycine, glycine], the “pH of 2.5% salt solution” value is reported as 6.12.
As for `[Cl-].[K+]` [KCl, potassium chloride], the “pH of 2.5% salt solution” value was found to be 6.05.
`Cl.N` [NH4Cl, ammonium chloride]: the “pH of 2.5% salt solution” value came out at 4.97.
Regarding `O=C([O-])[O-].[Na+].[Na+]` [Na2CO3(anhydrous), anhydrous sodium carbonate], the “pH of 2.5% salt solution” value was 11.31.
With `O=P([O-])([O-])O.[Na+].[Na+]` [Na2HPO4(anhydrous), anhydrous disodium hydrogen phosphate], the “pH of 2.5% salt solution” value was 8.90.
As to `[Cl-].[Na+]` [NaCl, sodium chloride], the “pH of 2.5% salt solution” value was determined as 5.69.
For the compound `O=C([O-])O.[Na+]` [NaHCO3(anhydrous), anhydrous sodium bicarbonate], the “pH of 2.5% salt solution” value is 8.09.
On to “anhydrous sodium acetate [CH3CO2Na(anhydrous)]”, for which the “pH of 2.5% salt solution” value is listed as 8.25.

These data come from patent US20080214557A1, “METHOD FOR PREPARATION OF PHARMACEUTICAL COMPOSITION HAVING IMPROVED DISINTEGRATABILITY AND PHARMACEUTICAL COMPOSITION MANUFACTURED BY SAME METHOD” (Eisai R&D Management Co., Ltd., priority 2005, published 2008).
